Assay results published in PubChem BioAssay (NCI).
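48-hour exposure; five concentrations; linearly interpolated endpoints. At the GI50, growth is halved. TGI is the concentration that stops growth completely.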

What was measured:
Test in all cases: NCI-60 cell line screen, 48 h
HL-60(TB) leukemia = test system: HL-60(TB) leukemia
COLO 205 colon = test system: COLO 205 colon
HOP-62 NSCLC = test system: HOP-62 NSCLC
SK-MEL-28 melanoma = test system: SK-MEL-28 melanoma
HCT-116 colon = test system: HCT-116 colon
MCF7 breast = test system: MCF7 breast
RPMI-8226 leukemia = test system: RPMI-8226 leukemia
SNB-19 CNS = test system: SNB-19 CNS
RXF 393 renal = test system: RXF 393 renal
DU-145 prostate = test system: DU-145 prostate

SMILES	TGI (HL-60(TB) leukemia)	TGI (COLO 205 colon)	TGI (HOP-62 NSCLC)	TGI (SK-MEL-28 melanoma)	TGI (HCT-116 colon)	TGI (MCF7 breast)	TGI (RPMI-8226 leukemia)	TGI (SNB-19 CNS)	TGI (RXF 393 renal)	TGI (DU-145 prostate)	GI50 (HL-60(TB) leukemia)	GI50 (COLO 205 colon)	GI50 (HOP-62 NSCLC)	GI50 (SK-MEL-28 melanoma)	GI50 (HCT-116 colon)	GI50 (MCF7 breast)	GI50 (RPMI-8226 leukemia)	GI50 (SNB-19 CNS)	GI50 (RXF 393 renal)	GI50 (DU-145 prostate)
CC(=O)n1nc(-c2ccccc2)n(/N=C/c2ccc([N+](=O)[O-])o2)c1=O	9.73 µM	12.7 µM	19.6 µM	22.3 µM	3.71 µM	13.8 µM	28.2 µM	36.9 µM	10.4 µM	16.7 µM	–	–	–	–	–	–	–	–	–	–
CCOP(=O)(OCC)OC1CC(n2cc(C)c(=O)n(C)c2=O)OC1CO[Si](C)(C)C(C)(C)C (stereo not drawn)	57.4 µM	> 100 µM	> 100 µM	> 100 µM	> 100 µM	> 100 µM	> 100 µM	> 100 µM	> 100 µM	> 100 µM	–	–	–	–	–	–	–	–	–	–
Cc1cc(O)c(-c2cc(O)c(C)cc2O)cc1O	3.88 µM	22.6 µM	32.6 µM	22.7 µM	21.7 µM	47.6 µM	4.07 µM	40.2 µM	5.93 µM	28.5 µM	–	–	–	–	–	–	–	–	–	–
COc1ccc(Oc2cnn(C(Br)(Br)C(C)=O)c(=O)c2Br)cc1	10.9 µM	26.9 µM	35.5 µM	32.4 µM	19.2 µM	34.8 µM	11.8 µM	56.8 µM	16.8 µM	42.2 µM	–	–	–	–	–	–	–	–	–	–
O=S1(=O)c2cnccc2NC(=NCc2ccccc2)N1c1ccccc1	> 100 µM	> 100 µM	> 100 µM	> 100 µM	> 100 µM	> 100 µM	58.8 µM	> 100 µM	> 100 µM	> 100 µM	–	–	–	–	–	–	–	–	–	–
O=[N+]([O-])c1cc(Cl)ccc1Sc1ccccc1	> 100 µM	> 100 µM	> 100 µM	> 100 µM	> 100 µM	> 100 µM	> 100 µM	> 100 µM	> 100 µM	> 100 µM	–	–	–	–	–	–	–	–	–	–
COc1ccc(-n2nc(C)c3c(Nc4ccc(NC(=O)Nc5ccc(Cl)c(C(F)(F)F)c5)cc4)ncnc32)cc1	4.95 µM	3.64 µM	3.66 µM	3.98 µM	3.35 µM	6.03 µM	4.21 µM	7.88 µM	2.17 µM	> 100 µM	2.1 µM	1.71 µM	1.83 µM	1.8 µM	1.21 µM	2.12 µM	1.34 µM	2.49 µM	0.617 µM	3.33 µM
CC1(C)CC(C#Cc2ccccc2)CC(C)(C)N1O	64.4 µM	49.4 µM	32.7 µM	32.8 µM	43.5 µM	36.3 µM	69.1 µM	> 100 µM	63.4 µM	41.9 µM	–	–	–	–	–	–	–	–	–	–
C[n+]1c(/C=C/c2ccc(O)c3ncccc23)[se]c2ccccc21	7.66 µM	22.2 µM	19.1 µM	52.9 µM	11.4 µM	14.8 µM	40.5 µM	51.3 µM	37.8 µM	16.8 µM	–	–	–	–	–	–	–	–	–	–
O=C(O)CN(CC(=O)O)C(C(=O)O)c1ccccc1 (stereo not drawn)	> 100 µM	> 100 µM	> 100 µM	> 100 µM	> 100 µM	> 100 µM	> 100 µM	> 100 µM	> 100 µM	> 100 µM	–	–	–	–	–	–	–	–	–	–
Cc1cc(NS(=O)(=O)c2ccc(NC(NC(=O)C(C(F)(F)F)C(F)(F)F)(C(F)(F)F)C(F)(F)F)cc2)no1	> 100 µM	> 100 µM	> 100 µM	> 100 µM	> 100 µM	> 100 µM	> 100 µM	> 100 µM	> 100 µM	> 100 µM	–	–	–	–	–	–	–	–	–	–
N#Cc1c(-c2ccccc2)c2c([nH]c1=O)-c1cc([N+](=O)[O-])ccc1CCC2	72.3 µM	55.3 µM	70.2 µM	> 100 µM	> 100 µM	71.8 µM	> 100 µM	> 100 µM	42.3 µM	71.2 µM	–	–	–	–	–	–	–	–	–	–
O=C(OCC1OC(n2nc(Cn3nnc(-c4cccnc4)n3)n(-c3cccc4ccccc34)c2=S)C(OC(=O)c2ccccc2)C1OC(=O)c1ccccc1)c1ccccc1 (stereo not drawn)	> 100 µM	> 100 µM	> 100 µM	> 100 µM	> 100 µM	> 100 µM	> 100 µM	> 100 µM	> 100 µM	> 100 µM	–	–	–	–	–	–	–	–	–	–
c1ccc([P+](CCCCCCCC[P+](c2ccccc2)(c2ccccc2)c2ccccc2)(c2ccccc2)c2ccccc2)cc1	> 31.8 µM	2.71 µM	> 100 µM	> 100 µM	> 100 µM	> 87.5 µM	23.8 µM	> 100 µM	> 100 µM	> 100 µM	–	–	–	–	–	–	–	–	–	–
CN(C)c1ccc(Cc2cc3c(O)ccc(O)c3cc(Cc3ccc(N(C)C)cc3)c2=O)cc1	> 37.6 µM	36.6 µM	> 100 µM	37.4 µM	40.8 µM	58.6 µM	> 84.9 µM	> 63.4 µM	31.9 µM	> 60 µM	–	–	–	–	–	–	–	–	–	–
O=C(CC(=O)Nc1ccccc1)NNC(c1cc(N=Nc2ccc(Br)cc2)ccc1O)P(O)O (stereo not drawn)	1.12 µM	> 10 µM	> 10 µM	> 10 µM	5.64 µM	> 10 µM	> 10 µM	> 10 µM	> 10 µM	> 10 µM	–	–	–	–	–	–	–	–	–	–
CN(C)c1cccc2c1C(=O)C=CC21c2ccc(N(C)C)c3c(N(C)C)ccc(c23)C(c2ccccc2)C1c1ccccc1 (stereo not drawn)	22.6 µM	25.7 µM	39.2 µM	37.5 µM	52.6 µM	36.9 µM	49.3 µM	44.4 µM	36.3 µM	> 100 µM	–	–	–	–	–	–	–	–	–	–
CC#CC(O)(C(=O)OC1CC(C)N(C)C(C)(C)C1)C1CCCC1 (stereo not drawn)	> 100 µM	> 100 µM	> 100 µM	> 100 µM	> 100 µM	> 100 µM	> 100 µM	> 100 µM	> 100 µM	> 100 µM	–	–	–	–	–	–	–	–	–	–
COc1nc2c(N3CCCC3)nc(N3CCNCC3)nc2nc1NCc1ccccc1	3.7 µM	1.98 µM	2.29 µM	3.92 µM	2.63 µM	3.46 µM	3.96 µM	4.19 µM	2.73 µM	12.3 µM	–	–	–	–	–	–	–	–	–	–
CCNc1ncnc2sc(SCc3ccccc3)nc12	56.4 µM	> 100 µM	> 100 µM	> 100 µM	> 100 µM	> 100 µM	> 100 µM	> 100 µM	> 100 µM	> 100 µM	–	–	–	–	–	–	–	–	–	–
CC(C)/C(Cl)=N/OC(=O)Nc1ccc(OC(F)(F)F)cc1	5.76 µM	3.26 µM	31.7 µM	26.6 µM	18 µM	28 µM	8.97 µM	31.6 µM	18.3 µM	31.5 µM	–	–	–	–	–	–	–	–	–	–
Nc1ccc(-c2nn3c(COc4ccc(Cl)cc4)nnc3s2)cc1	> 100 µM	> 100 µM	> 100 µM	> 100 µM	> 100 µM	> 100 µM	> 100 µM	> 100 µM	> 100 µM	> 100 µM	–	–	20.2 µM	–	34.8 µM	41 µM	–	–	–	–
Clc1ccc(/C(=C\c2ccccc2)Cn2ccnc2)cc1	45.5 µM	28.6 µM	38.3 µM	38.1 µM	29.1 µM	44.5 µM	73.7 µM	49.4 µM	42.2 µM	58.3 µM	–	–	–	–	–	–	–	–	–	–
COc1ccc(OC)c2sc(N3C(=O)/C(=C/c4cccc([N+](=O)[O-])c4)N=C3c3ccccc3)nc12	59.4 µM	> 100 µM	> 100 µM	> 100 µM	> 100 µM	48.9 µM	61.2 µM	> 100 µM	> 100 µM	> 100 µM	–	–	–	–	–	–	–	–	–	–
C[C@H]1[C@H](C)CC[C@]2(C(=O)OC3OC(CO)C(O)C(O)C3O)CC[C@]3(C)C(=CC[C@@H]4[C@@]5(C)C[C@H]6OC(=O)c7cc(O)c(O)c(O)c7-c7c(cc(O)c(O)c7O)C(=O)O[C@@H]6C(CO)(CO)[C@@H]5CC[C@]43C)[C@H]12 (stereo partly drawn)	> 100 µM	> 100 µM	> 100 µM	> 100 µM	> 100 µM	38.5 µM	> 100 µM	> 100 µM	> 100 µM	> 100 µM	–	–	–	–	–	–	–	–	–	–
C(=C\c1ccccc1)/COc1ccccc1C(N1CCOCC1)n1nc2ccccc2n1 (stereo not drawn)	1.45 µM	36.6 µM	20.4 µM	32.7 µM	22.8 µM	6.57 µM	12.2 µM	> 63.1 µM	19.4 µM	63.3 µM	–	–	–	–	–	–	–	–	–	–
COc1ccc2c(c1)c(=O)c1c(NCCNCCO)ccc3c(=O)n(CCN(C)C)c(=O)n2c31	> 100 µM	0.247 µM	2.4 µM	1.34 µM	0.348 µM	3.54 µM	1.15 µM	0.997 µM	0.266 µM	0.31 µM	–	–	–	–	–	–	–	–	–	–
COc1cc2[nH]c(-c3ccccc3)cc(=O)c2c(OC)c1OC	> 100 µM	> 100 µM	> 100 µM	> 100 µM	> 100 µM	> 100 µM	> 100 µM	> 100 µM	> 100 µM	> 100 µM	–	–	–	–	–	–	–	–	–	–
CCN(CCCl)c1cc(CN(C)C)cc(NC(=O)c2ccc(C(=O)Nc3cccc(CN(C)C)c3)cc2)c1	0.444 µM	2.41 µM	10.8 µM	5.2 µM	14.4 µM	1 µM	8.73 µM	1.34 µM	0.82 µM	42.6 µM	–	–	–	–	–	–	–	–	–	–
